In patent US20250313548A1 (Actio Biosciences, Inc., priority 2023, published 2025):

target: human, KCNT1 (Homo sapiens (Human), UniProt Q5JUK3); assay: FLIPR Tl/K Flux Assay; assay type: cell-based; conditions: HEK293 cells stably expressing human KCNT1; Tl+ flux stimulated with EC80 of agonist Loxapine
Summary of the method: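 HEK293 cells stably expressing human KCNT1 were loaded with FLIPR potassium dye in HEPES/HBSS pH 7.4 with 5 mM probenecid, 1 h at 25 °C, then given test compound for 30 min at 25 °C. Tl+ flux was triggered with chloride-free buffer containing Tl+ and EC80 loxapine and read 160 s. IC50 came from Hill fits of % inhibition.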

Chain of human, KCNT1 (Q5JUK3 whole entry): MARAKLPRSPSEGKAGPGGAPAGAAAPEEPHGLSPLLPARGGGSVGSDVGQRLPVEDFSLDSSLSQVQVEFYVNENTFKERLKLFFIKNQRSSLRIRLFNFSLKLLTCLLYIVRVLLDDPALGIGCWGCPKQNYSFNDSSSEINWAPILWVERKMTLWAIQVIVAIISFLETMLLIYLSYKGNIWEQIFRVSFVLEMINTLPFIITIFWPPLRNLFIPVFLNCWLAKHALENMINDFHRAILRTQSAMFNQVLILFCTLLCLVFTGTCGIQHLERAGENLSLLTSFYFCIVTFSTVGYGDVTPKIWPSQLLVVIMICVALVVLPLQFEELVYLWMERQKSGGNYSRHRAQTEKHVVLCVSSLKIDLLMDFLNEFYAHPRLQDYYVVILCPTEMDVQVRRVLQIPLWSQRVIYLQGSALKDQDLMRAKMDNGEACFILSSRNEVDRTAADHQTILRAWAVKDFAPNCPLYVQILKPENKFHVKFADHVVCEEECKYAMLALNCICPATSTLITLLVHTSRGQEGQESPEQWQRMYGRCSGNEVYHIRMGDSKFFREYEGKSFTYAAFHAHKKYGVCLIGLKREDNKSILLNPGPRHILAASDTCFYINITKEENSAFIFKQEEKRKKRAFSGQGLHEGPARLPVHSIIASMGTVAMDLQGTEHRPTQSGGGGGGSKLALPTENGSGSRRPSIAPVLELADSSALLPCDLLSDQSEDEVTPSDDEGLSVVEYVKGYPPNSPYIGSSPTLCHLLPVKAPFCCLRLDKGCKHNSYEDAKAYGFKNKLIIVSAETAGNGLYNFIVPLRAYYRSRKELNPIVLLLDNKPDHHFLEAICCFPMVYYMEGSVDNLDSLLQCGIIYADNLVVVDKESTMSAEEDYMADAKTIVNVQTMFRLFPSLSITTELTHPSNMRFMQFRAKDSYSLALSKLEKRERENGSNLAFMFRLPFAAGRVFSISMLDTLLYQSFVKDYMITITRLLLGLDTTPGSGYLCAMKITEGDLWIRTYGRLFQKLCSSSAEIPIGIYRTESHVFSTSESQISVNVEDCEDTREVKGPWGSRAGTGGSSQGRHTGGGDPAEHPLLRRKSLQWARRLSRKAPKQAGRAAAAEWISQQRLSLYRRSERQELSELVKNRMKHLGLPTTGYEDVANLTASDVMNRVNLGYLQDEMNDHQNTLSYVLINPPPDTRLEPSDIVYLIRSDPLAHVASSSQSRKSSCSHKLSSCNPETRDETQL

Row | SMILES | IC50 [nM]
1 | O=C(N[C@@H]1CCCc2nnc(-c3ccnc(C(F)(F)F)c3)cc21)c1cc(F)cc(F)c1 [Compound I-453b] | > 1000
2 | COc1cc(-c2nc3c(o2)[C@@H](NC(=O)c2cncc(C(F)(F)F)n2)CCC3)ccn1 [Compound I-143a, (S)-N-(2-(2-Methoxypyridin-4-yl)-4,5,6,7-tetrahydrobenzo[d]oxazol-7-yl)-6-(trifluoromethyl)pyrazine-2-carboxamide] | > 1000
3 | Cn1nc(C(F)(F)F)cc1C(=O)N[C@@H]1CCCn2nc(-c3ccnc(C4CC4)c3)cc21 [Compound I-64b] | 500 to 1000
4 | Cc1cc(C#N)cc(C(=O)N[C@@H]2CCn3nc(-c4cc(C(F)(F)F)ncc4F)cc32)c1 [Compound I-486b] | 250 to 500
5 | Cc1nc(C(=O)N[C@H]2CCn3nc(-c4ccnc(C(C)(F)F)c4)cc32)n(C)n1 [Compound I-206a, (S)-N-(2-(2-(1,1-Difluoroethyl)pyridin-4-yl)-5,6-dihydro-4H-pyrrolo[1,2-b]pyrazol-4-yl)-1,3-dimethyl-1H-1,2,4-triazole-5-carboxamide] | > 1000
6 | COc1cc(-c2nc3c(o2)[C@H](NC(=O)c2cncc(C(F)(F)F)n2)CCC3)c(Cl)cn1 [Compound I-513b] | > 1000
7 | Cn1nc(C(F)(F)F)cc1C(=O)N[C@H]1CCCc2c1nc(-c1ccnc(C(F)(F)F)c1)n2C [Compound I-247a, (S)-1-Methyl-N-(1-methyl-2-(2-(trifluoromethyl)pyridin-4-yl)-4,5,6,7-tetrahydro-1H-benzo[d]imidazol-4-yl)-3-(trifluoromethyl)-1H-pyrazole-5-carboxamide] | > 1000
8 | O=C(N[C@H]1CCCn2nc(-c3ccnc(C(F)(F)F)c3)cc21)c1cn(C2CC2)nn1 [Compound I-401a] | > 1000
9 | Cn1nc(C(F)(F)F)cc1C(=O)N[C@@H]1CCn2nc(-c3ccnc(C4CC4)c3)cc21 [Compound I-68b] | 500 to 1000
10 | Cc1cc(-c2cc3n(n2)CCC[C@@H]3NC(=O)c2cc(C(F)(F)F)nn2C)cc(C)n1 [Compound I-433a] | > 1000
11 | COc1cc(-c2cc3c(cn2)CCCC3NC(=O)c2cc(C(F)(F)F)nn2C)ccn1 (stereo not shown) [Compound I-393] | > 1000
12 | COc1cc(C(=O)N[C@@H]2CCCCn3nc(-c4cc(C(F)(F)F)ncc4F)cc32)ccn1 [Compound I-517b] | 500 to 1000
13 | O=C(N[C@@H]1CCc2nn(-c3ccnc(C(F)(F)F)c3)cc21)c1cc(F)cc(F)c1 [Compound I-100b] | > 1000
14 | COc1cc(-c2nc3c(o2)CCC[C@H]3NC(=O)c2cncc(C(F)(F)F)n2)c(F)cn1 [Compound I-503b] | > 1000
15 | Cn1cc(C(F)(F)F)nc1C(=O)NC1CCCc2nn(-c3ccnc(C(F)(F)F)c3)cc21 (racemic) [Compound I-24, (rac)-1-Methyl-4-(trifluoromethyl)-N-(2-(2-(trifluoromethyl)pyridin-4-yl)-4,5,6,7-tetrahydro-2H-indazol-4-yl)-1H-imidazole-2-carboxamide] | 500 to 1000
16 | CC(C)(C)CC(=O)N[C@H]1CCc2nn(-c3ccnc(C(F)(F)F)c3)cc21 [Compound I-103a] | < 250
17 | COc1cc(-c2cc3n(n2)CCC[C@@H]3NC(=O)c2cc(F)cc(C#N)c2)ccn1 [Compound I-313a, (S)-3-Cyano-5-fluoro-N-(2-(2-methoxypyridin-4-yl)-4,5,6,7-tetrahydropyrazolo[1,5-a]pyridin-4-yl)benzamide] | < 250
18 | COc1cc(-c2nc3c(o2)CCC[C@@H]3NC(=O)c2cncc(C(F)(F)F)n2)ccn1 [Compound I-211a, (S)-N-(2-(2-Methoxypyridin-4-yl)-4,5,6,7-tetrahydrobenzo[d]oxazol-4-yl)-6-(trifluoromethyl)pyrazine-2-carboxamide] | < 250
19 | O=C(N[C@H]1CCn2nc(-c3cc(C(F)(F)F)ncc3F)cc21)c1ccn2nccc2c1 [Compound I-549a] | < 250
20 | COc1cc(-c2nc3c(o2)[C@H](NC(=O)c2cncc(C(F)(F)F)n2)CCC3)ccn1 [Compound I-512b] | > 1000
21 | Cn1nc(C2CC2)nc1C(=O)N[C@H]1CCCc2oc(-c3ccnc(C4CC4)c3)nc21 [Compound I-223a, (S)-3-Cyclopropyl-N-(2-(2-cyclopropylpyridin-4-yl)-4,5,6,7-tetrahydrobenzo[d]oxazol-4-yl)-1-methyl-1H-1,2,4-triazole-5-carboxamide] | < 250
22 | Cn1nc(C(F)(F)F)cc1C(=O)N[C@H]1CCCc2cn(-c3ccnc(C(F)(F)F)c3)nc21 [Compound I-87a] | 500 to 1000

Results, then the molecule that gave them:

Row | IC50 [nM] | SMILES
23 | < 250 | O=C(N[C@H]1CCc2nn(-c3ccnc(C(F)(F)F)c3)cc21)c1ccccc1 [Compound I-91a]
24 | < 250 | O=C(N[C@H]1CCn2nc(-c3ccnc(C(F)(F)F)c3)cc21)c1cnn(C(F)(F)F)c1C(F)(F)F [Compound I-532a, (S)-1,5-bis(trifluoromethyl)-N-(2-(2-(trifluoromethyl)pyridin-4-yl)-5,6-dihydro-4H-pyrrolo[1,2-b]pyrazol-4-yl)-1H-pyrazole-4-carboxamide]
25 | < 250 | Cn1nc(C(F)(F)F)cc1C(=O)N[C@H]1CCCc2oc(-c3cc(C(F)(F)F)ncc3Cl)nc21 [Compound I-189a]
26 | < 250 | Cc1c(-n2cc3c(n2)CCC[C@@H]3NC(=O)c2cc(C(F)(F)F)nn2C)ccnc1C(F)(F)F [Compound I-359a]
27 | < 250 | O=C(N[C@H]1CCCn2nc(-c3ccnc(C(F)(F)F)c3)cc21)c1cn(C2CC2)nc1C(F)(F)F [Compound I-398a]
28 | < 250 | CC(C)n1nc(C(F)(F)F)cc1C(=O)NC1CCCc2nn(-c3ccnc(C(F)(F)F)c3)cc21 (racemic) [Compound I-8, (rac)-1-Isopropyl-3-(trifluoromethyl)-N-(2-(2-(trifluoromethyl)pyridin-4-yl)-4,5,6,7-tetrahydro-2H-indazol-4-yl)-1H-pyrazole-5-carboxamide]
29 | < 250 | CC(F)(F)c1cc(-n2cc3c(n2)CC[C@@H]3NC(=O)c2cccc(C#N)c2)ccn1 [Compound I-274a, (S)-3-Cyano-N-(2-(2-(1,1-difluoroethyl)pyridin-4-yl)-2,4,5,6-tetrahydrocyclopenta[c]pyrazol-4-yl)benzamide]
30 | < 250 | O=C(N[C@H]1CCCc2nc(-c3cc(C4CC4)ncc3F)oc21)c1cccc(C(F)(F)F)c1 [Compound I-165a, (S)-N-(2-(2-Cyclopropyl-5-fluoropyridin-4-yl)-4,5,6,7-tetrahydrobenzo[d]oxazol-7-yl)-3-(trifluoromethyl)benzamide]
31 | < 250 | Cn1nc(C(F)(F)F)nc1C(=O)N[C@H]1CCc2nn(-c3ccnc(C(F)(F)F)c3)cc21 [Compound I-308a, (S)-1-Methyl-3-(trifluoromethyl)-N-(2-(2-(trifluoromethyl)pyridin-4-yl)-2,4,5,6-tetrahydrocyclopenta[c]pyrazol-4-yl)-1H-1,2,4-triazole-5-carboxamide]
32 | < 250 | CC(F)(F)c1cc(-c2nc3c(o2)CCC[C@@H]3NC(=O)c2cncc(C(F)(F)F)c2)ccn1 [Compound I-533a, (S)—N-(2-(2-(1,1-Difluoroethyl)pyridin-4-yl)-4,5,6,7-tetrahydrobenzo[d]oxazol-4-yl)-5-(trifluoromethyl)nicotinamide]
33 | < 250 | Cc1cnc(C(F)(F)F)cc1-c1cc2n(n1)CC[C@@H]2NC(=O)c1cccc(C#N)c1 [Compound I-144a, (S)-3-Cyano-N-(2-(5-methyl-2-(trifluoromethyl)pyridin-4-yl)-5,6-dihydro-4H-pyrrolo[1,2-b]pyrazol-4-yl)benzamide]
34 | < 250 | Cn1cc(C(=O)N[C@H]2CCCn3nc(-c4ccnc(C(F)(F)F)c4)cc32)c(C(F)(F)F)c1 (single isomer, unassigned) [Compound I-409a]
35 | < 250 | COc1cc(-c2nc3c(o2)[C@@H](NC(=O)c2cc(Cl)cc(Cl)c2)CCC3)ccn1 [Compound I-150a, (S)-3,5-Dichloro-N-(2-(2-methoxypyridin-4-yl)-4,5,6,7-tetrahydrobenzo[d]oxazol-7-yl)benzamide]
36 | < 250 | O=C(N[C@H]1CCCn2nc(-c3cc(C(F)(F)F)ncc3F)cc21)c1cnc(C(F)(F)F)cn1 [Compound I-202a, (S)-N-(2-(5-Fluoro-2-(trifluoromethyl)pyridin-4-yl)-4,5,6,7-tetrahydropyrazolo[1,5-a]pyridin-4-yl)-5-(trifluoromethyl)pyrazine-2-carboxamide]
37 | < 250 | O=C(N[C@H]1CCCn2nc(-c3cc(C(F)(F)F)ncc3F)cc21)c1cncc(C(F)(F)F)n1 [Compound I-204a, (S)-N-(2-(5-Fluoro-2-(trifluoromethyl)pyridin-4-yl)-4,5,6,7-tetrahydropyrazolo[1,5-a]pyridin-4-yl)-6-(trifluoromethyl)pyrazine-2-carboxamide]
38 | < 250 | O=C(N[C@H]1CCCc2nc(-c3ccnc(C4CC4)c3)oc21)c1cccc(OC(F)(F)F)c1 [Compound I-170a, (S)-N-(2-(2-Cyclopropylpyridin-4-yl)-4,5,6,7-tetrahydrobenzo[d]oxazol-7-yl)-3-(trifluoromethoxy)benzamide]
39 | < 250 | O=C(N[C@H]1CCn2nc(-c3ccnc(C(F)(F)F)c3)cc21)c1cc(F)cc(C2CC2)c1 [Compound I-569a, (S)-3-Cyclopropyl-5-fluoro-N-(2-(2-(trifluoromethyl)pyridin-4-yl)-5,6-dihydro-4H-pyrrolo[1,2-b]pyrazol-4-yl)benzamide]
40 | < 250 | CCc1cc(-c2cc3n(n2)CCC[C@@H]3NC(=O)c2cc(C(F)(F)F)nn2C)ccn1 [Compound I-390a]
41 | < 250 | COc1cc(C(=O)N[C@H]2CCCn3nc(-c4ccnc(C(F)(F)F)c4)cc32)c(F)cn1 [Compound I-420a]
42 | < 250 | CC12CC(C(=O)N[C@H]3CCn4nc(-c5cc(C(F)(F)F)ncc5F)cc43)(C1)C2 [Compound I-524a, (S)-N-(2-(5-Fluoro-2-(trifluoromethyl)pyridin-4-yl)-5,6-dihydro-4H-pyrrolo[1,2-b]pyrazol-4-yl)-3-methylbicyclo[1.1.1]pentane-1-carboxamide]
43 | < 250 | Cn1nc(C(F)(F)F)cc1C(=O)N[C@H]1CCCc2oc(-c3ccnc(C(F)(F)F)c3)nc21 [Compound I-84a]
